The test system of data set [1] is feline leukemia virus (FeLV). Nature of the data set: Feline leukemia virus (FeLV) antiviral drug test. It counts as cell-based. To be noted: for EC50: Feline leukemia virus; for TI: in vitro therapeutic index, ratio of IC50/EC50, FeLV; for activity against the feline leukemia virus: result in words, Tables 1 through 3. From the text: Feline leukemia viruses belong to the retrovirus family. Diseases caused by members of this family in cats have clinical manifestations similar to symptoms observed in humans with diseases caused by the human immunodeficiency viruses. Feline leukemia virus was selected as a representative member of the retrovirus family to use as a model for drug testing to search for compounds effective in preventing viral infection and replication. Cell lines were provided by Hansen Veterinary Immunology, and reagents and protocols for the ELISA assay can be purchased from the same company.
(§1) Antiviral activity on crude extracts is expressed by percent antiviral activity or by using the minus and plus values stated above. The EC50 of an antiviral drug represents the concentration of drug that results in 50% reduction of the viral cytopathic effect and the IC50 represents the concentration resulting in 50% growth inhibition. These values are determined from graphs constructed from the raw data. The in vitro therapeutic index (TI) is the ratio of IC50 /EC50.

For another data set, the system named is CRFK cells. Nature of the data set: Toxicity for CRFK cells (neutral red or MTT assay), FeLV test. It counts as cell-based. The procedure: A. Determination of Toxicity of Samples for CRFK Cells with Neutral Red Assay or MTT Assay
This assay is a modification of a procedure provided in detail by Dr. Ellen Borenfreund from Rockefeller University. Borenfreund, E., and J. A. Puerner (1984) "A Simple Quantitative Procedure Using Monolayer Cultures for Cytotoxicity Assays (HTD/NR-90)," J. Tissue Culture Methods 9:7-9.
b. MTT is diluted in D-MEM maintenance medium at a concentration of 1 mg per ml. For the toxicity test 75 microliters are added to each well of a 96-well plate without removing any medium. The plates are incubated for 6 hours at 37° C. At the end of the incubation period the medium is removed. If the cell layer is adherent, plates are not centrifuged to bring the cells down. CRFK is an adherent cell line, and for the MTT assay, no centrifugation is required. To each well 200 microliters of isopropyl alcohol are added. The formazan crystals are dissolved. After mixing, the plates are read with a plate reader at a wavelength of 570 nm. Toxicity percentages are determined the same as for neutral red.
as §1
(In general: Formazan colour is commonly taken as a measure of viable cells.)

In data set [2] the test system is human immunodeficiency virus (HIV). Put plainly: HIV (AIDS virus) antiviral assay. The class given is cell-based. The procedure:
as §1

The nature of data set [3]: 50% growth inhibition (toxicity) in HIV assay. It counts as cell-based. The method, then: as §1
A further data set has as its system murine splenocytes. Put plainly: Two-way mixed lymphocyte reaction (MLR). The class given is cell-based, mouse (BALB/c and C57BL/6J). The method, then: The pure compound was tested in the two-way mixed lymphocyte reaction (MLR) and a lymphocyte viability assay (LCV) at 500, 50, 5, and 0.5 μg/ml, using murine splenocytes. Cellular proliferation was measured using incorporation of ^3 H-thymidine. Responses were reported as a percent of the positive MLR or LCV control.
1. Murine splenocyte suspensions were prepared separately from BALB/c and C57BL/6J mice. Spleens were aseptically removed and homogenized in RPMI 1640 tissue culture medium (TCM), supplemented with 10% fetal calf serum, 2% 1-glutamine, 15 mM HEPES, 1% antibiotic-antimycotic solution, and 25 μg/ml gentamycin (GIBCO). The cell concentrations were adjusted to 2.5×10^6 cells/ml. Aliquots of each cell population were removed to separate tubes, and the remaining two cell suspensions combined to one tube.
2. Serial, log10 dilutions of the pure compound were made in absolute ethanol, and 10 μl of each dilution were added to wells of microtiter test plates, and allowed to dry.
3. A volume of 0.2 ml of the combined splenocyte suspensions was added to triplicate test wells. Positive control wells received combined splenocyte suspensions in the absence of the test compounds. Negative control wells consisted of separate (not mixed) splenocyte suspensions cultured in the absence of the test compounds.
4. Plates were incubated in 5% CO2 at 37° C. for 86 hours.
5. A volume of 0.05 ml of ^3 H-thymidine (20 (μCi/ml) was added to each well, and the plates incubated in 5% CO2 at 37° C. for an additional 5 hours.
6. The contents of each well of the microtiter plates were harvested onto glass fiber filter strips, and the resulting filter discs placed in scintillation vials to which 2.0 ml of scintillation fluid was added.
7. The amount of incorporated ^3 H-thymidine was determined by counting the vials in a liquid scintillation counter.
8. Triplicate counts were averaged, and the data reported as a percentage of the positive control.

A further data set concerns P388. Nature of the data set: Standard P388 assay (tumor cell growth inhibition). It counts as cell-based. From the text: HB100 has also been tested to determine its activity in inhibiting the growth of tumor cells.
Data set [4] relates to mouse coronavirus A59 (MHV-A59). Put plainly: Antiviral assay for mouse coronavirus A59 (CPE). Details: key to activity: +++: complete inhibition of CPE and cell fusion; ++: partial inhibition; +: partial inhibition; +/-: partial inhibition; -: no protection. The class given is cell-based, mouse hepatitis virus strain MHV-A59. The procedure: (§2) The antiviral assay for A59 is a cytopathic test (CPE). Susceptible cells are infected with the virus at a dose that infects most of the cells and produces CPE. The characteristic CPE observed is the formation of syncytia. Compounds and extracts which inhibit the CPE are referred to as active samples.
(§3) 1. NCTC clone 1469 is a derivative of mouse liver.
1. Mouse hepatitis virus strain MHV-A59 classified as a coronavirus.
1. Dilute drug or extract for test in the appropriate solvent.
2. Add 20 μl per tube or well.
3. Allow the solvent to evaporate under the laminar flow hood.
4. Dilute the MHV-A59 in Dulbecco's phosphate buffered saline with Ca^++ and Mg^++ to the appropriate predetermined dilution for the lot number currently in use.
5. Remove medium from wells of 24 well plate containing NCTC 1469 cells seeded 24 hours earlier.
6. Medium can be removed by pouring the fluid from the plate and blotting it on a sterile towel.
7. Add 200 lambda of diluted virus to each test well. Add PBS to control wells.
8. Incubate cells and virus for 1 hour at 37° C.
9. Pour off supernatant at end of incubation period.
10. To each glass tube add 10 lambda of dimethyl sulfoxide (DMSO). The purpose for the DMSO is to solubilize the drug. If it is known that the drug under test is water soluble, then the DMSO is not necessary. However, in cases of testing unknown compounds, DMSO may be added, but DMSO causes some toxicity. Since differences have been noted with and without DMSO, the preferred technique is to test the sample under both conditions.
11. Add 1 ml of maintenance medium to each glass tube.
12. Pour the contents of the glass tube into the corresponding well of the tissue culture plate.
13. Incubate infected cells at 37° C. and read the following day.
14. At 12 hours, areas of cell fusion are quite apparent and can be detected both visually and microscopically.
15. […]
To assist in visual interpretation of the data, the antiviral activity is scored from a minus to a three plus based on the percentage of inhibition of viral cytopathic effects. […]

Data set [5] in a line: Cytotoxicity scoring in coronavirus A59 assay. It counts as cell-based. The settings on record: mouse, nctc 1469 cells, read-out: toxicity.
Text: as §2, §3
100%=complete cell destruction
75%=partial cell destruction
50%=partial cell destruction
25%=partial cell destruction

The mark [6] stands for this setting: FeLV assay, 50% growth inhibition, molar value, read-out: IC50 (in parentheses).

Values after ≈ are worked out from the molar mass of the structure shown. Like-named read-outs stand apart in the source and are kept apart here.

From patent US5079239A, “Sterol disulfates and methods of use” (Harbor Branch Oceanographic Institution, Inc., priority 1990, dated 1992) come the findings set out here.

As to `CC(C)C1(CCC(C)(O)C2C(O)CC3C4CCC5CC(OS(=O)(=O)O)C(OS(=O)(=O)O)CC5(C)C4CCC32C)CC1C` (stereo not drawn) [HB99], the EC50 – broadly, the concentration giving half of the maximal effect – in data set [1] is 20 µg/mL (≈ 31.4 µM). Also, the TI in data set [1] is listed as 17.5; in data set [2] (in vitro therapeutic index, ratio of IC50/EC50, HIV), 70. For the same compound, the “activity against the feline leukemia virus” value in data set [1] is recorded as “showed activity against the feline leukemia virus”. For the same compound, the IC50 – broadly, the concentration at which inhibition is half-maximal – in the data set with CRFK cells was 350 µg/mL; in the data set with CRFK cells (setting [6]) it was 514 µM; in data set [3], 350 µg/mL (≈ 550 µM). The “activity against the AIDS virus” value in data set [2] (result in words) is “showed activity against the AIDS virus”. Moreover, the activity at 0.05 µg/mL with murine splenocytes (Mus musculus, Splenocyte, 0.05 μg/ml, percent of positive control) was determined as 126%. Further, in the data set on murine splenocytes (Mus musculus, Splenocyte, 5.00 μg/ml, percent of positive control), the activity at 5 µg/mL turned out to be 98%. Further, the activity at 50 µg/mL in the data set with murine splenocytes (Mus musculus, Splenocyte, 50.00 μg/ml, percent of positive control) was found to be 19%. Further, the activity at 500 µg/mL in the data set with murine splenocytes (Mus musculus, Splenocyte, 500.00 μg/ml, percent of positive control) was 0%. Also, the “immunosuppressive activity (MLR <100% and LCV >70%)” value in the data set with murine splenocytes (at 50 μg/ml and 5 μg/ml, result in words) is recorded as “exhibited immunosuppressive activity”.

`CC(CCC1(C(C)C)CC1C)C1C(O)CC2C3CCC4CC(OS(=O)(=O)O)C(OS(=O)(=O)O)CC4(C)C3CCC21CO` (stereo not drawn) [HB100]: in data set [1], the midpoint of the response, the EC50, lay at 26 µg/mL (≈ 40.8 µM); the TI was 7.1; the “activity against the feline leukemia virus” value is on record as “showed activity against the feline leukemia virus”. Also, it took 185 µg/mL to reach half-maximal inhibition with CRFK cells (IC50). Also, the IC50 with CRFK cells (setting [6]) was found to be 272 µM. Moreover, the IC50 with P388 (Mus musculus, standard P388 assay) was determined as 0.1 µg/mL (≈ 0.157 µM). Also, the “inhibition of growth of tumor cells” value in the data set on P388 (result in words) is on record as “inhibit the growth of tumor cells”.

`CCCC12OC3CC4C5CCC6CC(OS(=O)(=O)O)C(OS(=O)(=O)O)CC6(C)C5CCC4(C)C3C(C)(O1)C(CC1(C(C)C)CC1C)O2` (stereo not drawn) [HB124]: the EC50 in data set [1] was 6.25 µg/mL (≈ 8.87 µM). Besides, the TI in data set [1] was over 8. Also, in data set [1], the “activity against the feline leukemia virus” value is on record as “showed activity against the feline leukemia virus”. Further, the IC50 is over 50 µg/mL in the data set on CRFK cells and over 68 µM with CRFK cells (setting [6]). Further, the activity result in data set [4] (2 μg) is on record as “-”; in data set [4] (20 μg), “++”. For the same compound, the “inhibition of viral growth” value in data set [4] (20 μg, result in words) was “significantly inhibit viral growth”. Moreover, the values for the cytotoxicity in data set [5] (2 μg) and in data set [5] (20 μg) were 0% and 25%, respectively.
